We go through 2 compounds from article PMC4207401, “A Novel Inhibitor of Mammalian Triosephosphate Isomerase Found by an In Silico Approach” (International Journal of Medicinal Chemistry, 2014).

Read-outs that look alike come from different tables or passages of the source.

This experiment has as its target T1, triosephosphate isomerase (rabbit muscle TIM) (Oryctolagus cuniculus, UniProt P00939).
T1 construct: gene TPI1; native enzyme from rabbit muscle, commercial reagent (Sigma-Aldrich); homodimer; 1R2R is the rabbit TIM structure used for docking
The experiment in a line: coupled assay with alpha-glycerophosphate dehydrogenase, NADH at […] nm. In kind it is biochemical.

T1 sequence (P00939 2-249): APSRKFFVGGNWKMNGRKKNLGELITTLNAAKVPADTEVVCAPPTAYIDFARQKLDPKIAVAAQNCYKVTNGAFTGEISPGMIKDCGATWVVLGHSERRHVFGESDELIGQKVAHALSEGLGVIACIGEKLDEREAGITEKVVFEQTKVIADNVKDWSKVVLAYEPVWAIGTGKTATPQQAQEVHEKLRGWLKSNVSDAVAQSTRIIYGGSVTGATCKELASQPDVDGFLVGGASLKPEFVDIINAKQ

Regarding `Nc1nc2c(c(=O)[nH]1)C(c1ccccc1)C1=C(N2)c2ccccc2C1=O` (racemic) [compound 1, 2-amino-5-phenyl-3H-indeno[2′,1′:5,6]pyrido[2,3-d]pyrimidine-4,6(5H,11H)-dione], the Ki (read-out: K i) was found to be 44 µM. As for `O=C1C2=C(Nc3[nH]c(=O)[nH]c(=O)c3[C@H]2c2ccccc2)c2ccccc21` [compound 2, Compound 2], the Ki (glyceraldehyde-3-phosphate 0.4 mM (= Km), NADH 0.1 mM, pH 8.0, Ki calculated from IC50 by Ki = Kapp/(1 + [S]/Km), read-out: 2) is over 440 µM.
